Test results published in patent publication US11458171B2, “Engineering stem cells for cancer therapy” (CHINA MEDICAL UNIVERSITY, priority 2018, dated 2022).

System: UMSCs
Assay: Effect of GCV on plain UMSCs
Format: cell-based, human
Settings: GCV alone on unmodified UMSCs

Nc1nc(O)c2ncn(COC(CO)CO)c2n1 [GCV, ganciclovir]
cell proliferation of UMSCs: did not affect cell proliferation
